These results are taken from publication PMC11915509, “Small molecule inhibitors of hnRNPA2B1–RNA interactions reveal a predictable sorting of RNA subsets into extracellular vesicles” (Nucleic Acids Research, 2025).

For one data set, the system named is hnRNPA2B1 isoform. Also on record: method as in PMID 29379020. The following applies: hnRNPA2B1 isoform ref 45; read-out: observed Kd; cited from earlier work.
The target of the next data set is T1, GST-hnRNPA2B1 (Homo sapiens, UniProt P22626).
T1 construct: purified a human full-length, GST-tagged protein expressed in Escherichia coli cells; made in house; host or cells: E. coli BL21 (DE3)
T1 sequence (P22626 whole entry): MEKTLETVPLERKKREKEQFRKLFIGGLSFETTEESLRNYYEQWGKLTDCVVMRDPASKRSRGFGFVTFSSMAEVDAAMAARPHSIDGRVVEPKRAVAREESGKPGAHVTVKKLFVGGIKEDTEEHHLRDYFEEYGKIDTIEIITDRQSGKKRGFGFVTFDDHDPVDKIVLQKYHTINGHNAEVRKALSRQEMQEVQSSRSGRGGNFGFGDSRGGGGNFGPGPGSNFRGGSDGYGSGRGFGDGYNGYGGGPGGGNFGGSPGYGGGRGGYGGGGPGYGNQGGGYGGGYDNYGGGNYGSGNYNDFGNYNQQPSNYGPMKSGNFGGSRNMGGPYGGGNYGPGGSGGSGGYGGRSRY
Nature of the data set: AlphaScreen binding kinetics with EXOmotif probe. The following applies: 30 nM GST-hnRNPA2B1, time frame of 2 h. Here is the method: AlphaScreen assay was used to study the interaction between hnRNA2B1 and different biotinylated single-stranded RNA probes: EXO RNA (5′-BTeg- […]), RNA 114 (5′- BTeg-[…]), and RNA 276 (5′-B-Teg- […]). The assays were performed in OptiPlate-384-well plates (PerkinElmer, 6007299) in 20 μl final volume. The ligands were diluted in AlphaBuffer [25 mM HEPES, pH 7.4, 100 mM NaCl, 0.01% bovine serum albumin (BSA)] and tested using AlphaScreen GST Detection Kit (PerkinElmer, 6760603C). For the assay optimization, different concentrations of the RNA probes (0–100 nM) were incubated with different concentrations of GST-hnRNPA2B1 (0–60 nM) in the presence of streptavidin Donor beads and anti-GST-Acceptor beads (PerkinElmer) (20 μg/ml final concentration). […]
Figure 2. […] Dissociation constants (Kd) were determined from nonlinear regression one-site binding model in GraphPad Prism®, version 9.0. […] Association (Kon) and dissociation (Koff) rate constants and equilibrium dissociation constants (koff/kon) were determined using nonlinear regression association kinetic model of multiple ligand concentration in GraphPad Prism®, version 9.0. […] Densitometric quantification of protein fractions were normalized to the input. […] (G) Distribution of positive (EXOmotif) and negative (ARE) protein–RNA probe interactions calculated in the primary drug screening. […]
A general note: In Alpha technology, singlet oxygen from a donor bead excites a nearby acceptor bead.

Turning to RNA 114: RNA oligo 5′-AAGGACUAGC, the Kd in the data set with hnRNPA2B1 isoform is 114 nM.

As to “EXOmotif: single-stranded RNA oligo 5′-GGGGAGGUUAGGGAGGAGGGGGGUAGGCGCC (RNA, backbone not given here)”, the “association rate constant kon” value with GST-hnRNPA2B1 was 523 664 M^−1min^−1.

For orientation: Kd means a measure of binding affinity in units of concentration.
